# Legend:
# Assay type in all cases: in vivo
# velvetleaf [1] = assay: Test Example 4: herbicidal effect in foliage treatment; conditions: dose 6.3 g/a, three weeks after application
# In short: (§1)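 Seeds sown in sterilized diluvial soil under ~1.5 cm soil cover and grown 14 days in a greenhouse at 25 to 30° C. Emulsifiable concentrates diluted with water were then sprayed uniformly on foliage at predetermined doses (g/a). Herbicidal effect was scored three weeks after application on a graded evaluation scale.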
# barnyardgrass [2] = assay: as above; conditions: dose 6.3 g/a, three weeks after application
# In short: as §1
# giant foxtail [3] = assay: as above; conditions: dose 6.3 g/a, three weeks after application
# In short: as §1
# Italian ryegrass [4] = assay: as above; conditions: dose 6.3 g/a, three weeks after application
# In short: as §1
# common chickweed [5] = assay: as above; conditions: dose 6.3 g/a, three weeks after application
# In short: as §1
# beadstraw = assay: as above; conditions: dose 6.3 g/a, three weeks after application
# In short: as §1
# common ragweed [6] = assay: as above; conditions: dose 6.3 g/a, three weeks after application
# In short: as §1
# redroot pigweed [7] = assay: as above; conditions: dose 6.3 g/a, three weeks after application
# In short: as §1
# posumbu knotweed [8] = assay: as above; conditions: dose 6.3 g/a, three weeks after application
# In short: as §1
# common lambsquater [9] = assay: as above; conditions: dose 6.3 g/a, three weeks after application
# In short: as §1
# water foxtail [10] = assay: as above; conditions: dose 6.3 g/a, three weeks after application
# In short: as §1
# large crabgrass [11] = assay: as above; conditions: dose 6.3 g/a, three weeks after application
# In short: as §1
# wild oat [12] = assay: as above; conditions: dose 6.3 g/a, three weeks after application
# In short: as §1
# barnyardgrass [13] = assay: Test Example 2: herbicidal effects during the vegetation period under submerged conditions; conditions: treatment during the vegetation period under submerged conditions; dose 2.52 g/a
# In short: (§2)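 Barnyardgrass, bulrush and ducksalad were co-sown in alluvial soil flooded to 4 cm and grown in a greenhouse at 25 to 30° C. At the 1- or 2-leaf stage, water-diluted emulsifiable concentrates went onto the water surface at set doses (g/a). Herbicidal effect was scored three weeks later on a graded scale.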
# ducksalad [14] = assay: as above; conditions: treatment during the vegetation period under submerged conditions; dose 2.52 g/a
# In short: as §2
# bulrush [15] = assay: as above; conditions: treatment during the vegetation period under submerged conditions; dose 2.52 g/a
# In short: as §2
# transplanted rice = assay: Test Example 1: preemergence treatment under submerged conditions, effect on crop; conditions: dose 2.52 g/a
# In short: (§3)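 Submerged conditions, 4 cm water over alluvial soil. Weeds sown and 2.5-leaf rice transplanted; compound applied preemergence to water surface, doses in g per are. Greenhouse, 25 to 30° C., three weeks, then 0–5 mortality rating.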
# velvetleaf [16] = assay: Test Example 3: herbicidal effects in soil treatment; conditions: dose 6.3 g/a
# In short: (§4)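 Seeds were sown in sterilized diluvial soil and covered with about 1.5 cm of soil. Compounds, formulated as emulsifiable concentrates and diluted with water, were sprayed evenly over the soil surface at set doses in g/a. Herbicidal effect was scored on a rating scale three weeks later.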
# barnyardgrass [17] = assay: as above; conditions: dose 6.3 g/a
# In short: as §4
# giant foxtail [18] = assay: as above; conditions: dose 6.3 g/a
# In short: as §4
# Italian ryegrass [19] = assay: as above; conditions: dose 6.3 g/a
# In short: as §4
# common chickweed [20] = assay: as above; conditions: dose 6.3 g/a
# In short: as §4
# common ragweed [21] = assay: as above; conditions: dose 6.3 g/a
# In short: as §4
# redroot pigweed [22] = assay: as above; conditions: dose 6.3 g/a
# In short: as §4
# posumbu knotweed [23] = assay: as above; conditions: dose 6.3 g/a
# In short: as §4
# common lambsquater [24] = assay: as above; conditions: dose 6.3 g/a
# In short: as §4
# water foxtail [25] = assay: as above; conditions: dose 6.3 g/a
# In short: as §4
# large crabgrass [26] = assay: as above; conditions: dose 6.3 g/a
# In short: as §4
# wild oat [27] = assay: as above; conditions: dose 6.3 g/a
# In short: as §4
# barnyardgrass [28] = assay: Test Example 1: herbicidal effects in preemergence treatment under submerged conditions; conditions: dose 2.52 g/a
# In short: as §3
# ducksalad [29] = assay: as above; conditions: dose 2.52 g/a
# In short: as §3
# bulrush [30] = assay: as above; conditions: dose 2.52 g/a
# In short: as §3
structure (smiles),measurement,setting,value
"CCOC(=O)N(c1ccccc1CN1CCOCC1=O)S(=O)(=O)C(F)(F)F [Compound I-2, 4-[2-(N-ethoxycarbonyl-N-trifluoromethanesulfonyl)aminobenzyl]-1,4-oxazinan-3-one]","I: velvetleaf, herbicidal effect",velvetleaf [1],5 (mortality of 90% or above (nearly complete death))
same,"A: barnyardgrass, herbicidal effect",barnyardgrass [2],5 (mortality of 90% or above (nearly complete death))
same,"E: giant foxtail, herbicidal effect",giant foxtail [3],5 (mortality of 90% or above (nearly complete death))
same,"H: Italian ryegrass, herbicidal effect",Italian ryegrass [4],4 (mortality of at least 70% and less than 90%)
same,"N: common chickweed, herbicidal effect",common chickweed [5],4 (mortality of at least 70% and less than 90%)
same,"O: beadstraw, herbicidal effect",beadstraw,5 (mortality of 90% or above (nearly complete death))
same,"J: common ragweed, herbicidal effect",common ragweed [6],3 (mortality of at least 40% and less than 70%)
same,"K: redroot pigweed, herbicidal effect",redroot pigweed [7],3 (mortality of at least 40% and less than 70%)
same,"M: posumbu knotweed, herbicidal effect",posumbu knotweed [8],4 (mortality of at least 70% and less than 90%)
same,"L: common lambsquater, herbicidal effect",common lambsquater [9],4 (mortality of at least 70% and less than 90%)
same,"G: water foxtail, herbicidal effect",water foxtail [10],5 (mortality of 90% or above (nearly complete death))
same,"D: large crabgrass, herbicidal effect",large crabgrass [11],5 (mortality of 90% or above (nearly complete death))
same,"F: wild oat, herbicidal effect",wild oat [12],3 (mortality of at least 40% and less than 70%)
same,"A: barnyardgrass, herbicidal effect (evaluation scale 0-5)",barnyardgrass [13],5 (mortality of 90% or above (nearly complete death))
same,"C: ducksalad, herbicidal effect (evaluation scale 0-5)",ducksalad [14],5 (mortality of 90% or above (nearly complete death))
same,"B: bulrush, herbicidal effect (evaluation scale 0-5)",bulrush [15],5 (mortality of 90% or above (nearly complete death))
same,"a: transplanted rice, effect on crop (evaluation scale 0-5)",transplanted rice,1 (mortality of at least 5% and less than 20%)
same,"I: velvetleaf, herbicidal effect (evaluation scale 0-5)",velvetleaf [16],5 (mortality of 90% or above (nearly complete death))
same,"A: barnyardgrass, herbicidal effect (evaluation scale 0-5)",barnyardgrass [17],5 (mortality of 90% or above (nearly complete death))
same,"E: giant foxtail, herbicidal effect (evaluation scale 0-5)",giant foxtail [18],5 (mortality of 90% or above (nearly complete death))
same,"H: Italian ryegrass, herbicidal effect (evaluation scale 0-5)",Italian ryegrass [19],5 (mortality of 90% or above (nearly complete death))
same,"N: common chickweed, herbicidal effect (evaluation scale 0-5)",common chickweed [20],5 (mortality of 90% or above (nearly complete death))
same,"J: common ragweed, herbicidal effect (evaluation scale 0-5)",common ragweed [21],5 (mortality of 90% or above (nearly complete death))
same,"K: redroot pigweed, herbicidal effect (evaluation scale 0-5)",redroot pigweed [22],5 (mortality of 90% or above (nearly complete death))
same,"M: posumbu knotweed, herbicidal effect (evaluation scale 0-5)",posumbu knotweed [23],5 (mortality of 90% or above (nearly complete death))
same,"L: common lambsquater, herbicidal effect (evaluation scale 0-5)",common lambsquater [24],5 (mortality of 90% or above (nearly complete death))
same,"G: water foxtail, herbicidal effect (evaluation scale 0-5)",water foxtail [25],5 (mortality of 90% or above (nearly complete death))
same,"D: large crabgrass, herbicidal effect (evaluation scale 0-5)",large crabgrass [26],5 (mortality of 90% or above (nearly complete death))
same,"F: wild oat, herbicidal effect (evaluation scale 0-5)",wild oat [27],3 (mortality of at least 40% and less than 70%)
same,"A: barnyardgrass, herbicidal effect (evaluation scale 0-5)",barnyardgrass [28],5 (mortality of 90% or above (nearly complete death))
same,"C: ducksalad, herbicidal effect (evaluation scale 0-5)",ducksalad [29],5 (mortality of 90% or above (nearly complete death))
same,"B: bulrush, herbicidal effect (evaluation scale 0-5)",bulrush [30],5 (mortality of 90% or above (nearly complete death))
